Reference: PMC12566971, “Polyprenylated Acylphloroglucinols from Hypericum rochelii and Hypericum olympicum—Cytotoxic Effects on Non-Tumorigenic Cell Lines and Antibacterial Potential” (Pharmaceuticals, 2025)

Key:
CCL-1 cell line = assay: Live-cell imaging with Hoechst for apoptosis detection; assay type: cell-based; conditions: positive control, 5 to 72 h
Description: Cell suspension was seeded in the same manner as for MTT, but 50 µL per well in 96-well clear bottom plates. […] For the hypertonic buffer, the exposure time was 2 h, and the cells were plated at twice the concentration as for the MTT and cytopathic tests in order to comply with the kit protocol.
At least two wells were seeded as replicates, and at least two photographs were taken for all samples and treatments, stained with dyes or not.

breast cancer cell line = test system: breast cancer cell line; set-up: method as in PMID 26865836; conditions: 24 h, ref [93]; cited from earlier work
unspecified fibroblasts = conditions: up to 30 μg/mL for 24 h, ref [93]; cited from earlier work
HT-22 and SH-SY5Y cells = conditions: concentration where viability was restored to about 75%, ref [103]; read-out: Effective concentration 50 (EC50), neuroprotection; cited from earlier work
[1] = test system: panel of cancer cell lines; set-up: method as in PMID 39454890; conditions: ref [48]; read-out: IC50 against a panel of cancer cell lines; cited from earlier work
[2] = test system: Methicillin-Resistant S. aureus (MRSA); assay: MIC and MBC evaluation (broth microdilution, agar plate assay); assay type: cell-based, Staphylococcus aureus
Description: (§1) The MIC and MBC assessment on the pathogenic bacteria and the candidate probiotic lactic acid bacteria was carried out by the broth microdilution assay (BMD) and the agar plate assay, respectively, as described in [4]. The metabolic (dehydrogenase) activity of the lactic acid bacteria was assessed as described in [4].
(§2) P. aeruginosa PAO1 ATCC 15692 was purchased from the American Type Cell Culture Collection (ATCC, Manassas, VA, USA). S. mutans DSM 20523 was bought from the German Collection of Microorganisms and Cell Cultures (DSMZ GmbH, Braunschweig, Germany). All other bacteria and strains were purchased as described in [4].

[3] = test system: Human embryonic kidney-293 (HEK-293); assay: MTT assay for cytotoxicity; assay type: cell-based
Description: (§3) The MTT assay was performed according to Annex C, ISO 10993-5 [56] as in [116]. The panel of non-tumorigenic cell lines consisted of one murine (CCL-1 fibroblasts, which are recommended as a standard for cytotoxicity evaluation in Annex C of ISO 10993-5 [56]) and four human cell lines—HaCaT (immortalized epidermal keratinocytes), HGF (gingival fibroblasts), HEK-293 (embryonic cells from kidney epithelium), and HEPG2 (hepatoblastoma). Although technically a cancer cell line, HEPG2 is non-tumorigenic and retains many hepatocyte-related features in its proteome and a high degree of morphological and functional differentiation, also being a stage one hepatoblastoma.
(§4) CCL-1 was purchased from ATCC and HaCaT and HGF were bought from CLS Cell Lines Service (GmbH, Eppelheim, Germany). HEK-293 and HEPG2 were obtained from DSMZ. The cell culture medium for HaCaT and HEPG2 was Dulbecco’s Modified Eagle Medium (DMEM) with 4.5 g/L glucose (DMEM-HA). For HGF it was DMEM/F-12 (DMEM-12-A, a 1:1 mixture of DMEM and Ham’s F-12 medium). The cell medium for CCL-1 and HEK-293 was Eagle’s Minimum Essential Medium (MEM) (MEM-A). Ten percent heat-inactivated fetal bovine serum (FBS) was added to all media but to the one for the CCL-1 cells, to which 10% heat-inactivated horse serum was added. All media were supplemented with 2 mM L-glutamine and Penicillin/Streptomycin (Pen/Strep, 100×). The cell culture media, sera, and additives were from Capricorn Scientific (Düsseldorf, Germany).
(§5) GraphPad Prism software version 9 (GraphPad Software Inc., San Diego, CA, USA) was used to calculate the IC50 values from the MTT assays as in [116], as well as the MTC values, and the ELISA standard curves. The MTC values are, according to ISO 10993-5, the maximum concentration at which at least 70% of the cells are viable (nonlin fit, range).

[4] = test system: Human gingival fibroblasts (HGF); assay: MTT assay for cytotoxicity; assay type: cell-based
Description: as §3, §4, §5

HEPG2 = assay: MTT assay for cytotoxicity; assay type: cell-based, human
Description: as §3, §4, §5

HaCaT = assay: MTT assay for cytotoxicity; assay type: cell-based, human
Description: as §3, §4, §5

CCL-1 = assay: MTT assay for cytotoxicity; assay type: cell-based, murine
Description: as §3, §4, §5

Enterococcus faecalis [5] = conditions: ref [4],[29]; cited from earlier work
[6] = test system: Methicillin-Resistant S. aureus (MRSA); conditions: ref [4],[29]; cited from earlier work
Staphylococcus aureus [7] = conditions: ref [4],[29]; cited from earlier work
Streptococcus pyogenes [8] = assay: MIC and MBC evaluation (broth microdilution, agar plate assay); assay type: cell-based; conditions: for MBC/MIC ratio, S. pyogenes: bactericidal if ≤ 4, bacteriostatic if > 4
Description: as §1, §2

Enterococcus faecalis [9] = assay: as above; assay type: cell-based; conditions: for MBC/MIC ratio, E. faecalis: bactericidal if ≤ 4, bacteriostatic if > 4
Description: as §1, §2

Staphylococcus aureus [10] = assay: as above; assay type: cell-based
Description: as §1, §2

[11] = test system: Pseudomonas aeruginosa PAO1; assay: as above; assay type: cell-based
Description: as §1, §2

Streptococcus pyogenes [12] = conditions: ref [4],[29]; cited from earlier work
Streptococcus mutans = assay: MIC and MBC evaluation (broth microdilution, agar plate assay); assay type: cell-based
Description: as §1, §2

[13] = bactericidal if ≤ 4, bacteriostatic if > 4

## COc1cccc2c1C(=O)c1c(O)c3c(c(O)c1C2=O)C[C@@](O)(C(C)=O)C[C@@H]3O[C@H]1C[C@H](N)[C@H](O)[C@H](C)O1 [daunorubicin, reference compound]
CCL-1 cell line
  Highly condensed and shrunken nuclei (marker of apoptosis): not in samples treated with daunorubicin

## Cc1cc(O)c2c(=O)c3c(O)cc(O)c4c5c(O)cc(O)c6c(=O)c7c(O)cc(C)c8c1c2c(c34)c(c78)c65 [hypericin]
Breast cancer cell line
  IC50 for a breast cancer cell line: 5 µg/mL
Unspecified fibroblasts
  Effect on cell survival of fibroblasts: did not have a significant effect

## c1cc2c(cc1[C@H]1OC[C@H]3[C@@H]1CO[C@@H]3c1ccc3c(c1)OCO3)OCO2 [sesamine]
HT-22 and SH-SY5Y cells
  EC50: 2.85 µM

## Cerastioside A
[1]
  IC50: 107 to 198 µM

## Olympiforin A
[2]
  MBC: 171 µM
  MBC, Methicillin-Resistant S. aureus (MRSA): 85 µg/mL
[2]; [13]
  MBC/MIC ratio, MRSA: 7
[3]
  Maximum tolerated concentration (MTC), HEK-293: 0.41 µg/mL
[3]; MTT assay
  IC50, HEK-293: 0.69 µg/mL
[3]; converted to µM
  IC50: 1.39 µM
[4]
  Maximum tolerated concentration (MTC), HGF: 16.78 µg/mL
[4]; MTT assay
  IC50, HGF: 19.44 µg/mL
[4]; converted to µM
  IC50: 39.1 µM
HEPG2
  Maximum tolerated concentration (MTC), HEPG2: 2.51 µg/mL
HEPG2; MTT assay
  IC50, HEPG2: 6.87 µg/mL
HEPG2; converted to µM
  IC50: 13.8 µM
HaCaT
  Maximum tolerated concentration (MTC), HaCaT: 0.47 µg/mL
HaCaT; MTT assay
  IC50, HaCaT: 1.33 µg/mL
HaCaT; converted to µM
  IC50: 2.68 µM
CCL-1
  Maximum tolerated concentration (MTC), CCL-1: 3.27 µg/mL
CCL-1; MTT assay
  IC50, CCL-1: 6.13 µg/mL
CCL-1; converted to µM
  IC50: 12.3 µM
Enterococcus faecalis [5]
  MIC on bacteria, E. faecalis: 12.5 µg/mL
[6]
  MIC on bacteria, MRSA: 12.5 µg/mL
Staphylococcus aureus [7]
  MIC on bacteria, S. aureus: 0.78 µg/mL
Streptococcus pyogenes [8]
  MBC: 1008 µM
  MBC, Streptococcus pyogenes: 500 µg/mL
  MBC/MIC ratio, S. pyogenes: 40
Enterococcus faecalis [9]
  MBC: 252 µM
  MBC, Enterococcus faecalis: 125 µg/mL
  MBC/MIC ratio, E. faecalis: 10
Staphylococcus aureus [10]
  Minimal bactericidal concentration (MBC), Staphylococcus aureus: 25 µg/mL
Staphylococcus aureus [10]; [13]
  MBC/MIC ratio, S. aureus: 32
Staphylococcus aureus [10]; read-out: Minimal bactericidal concentration (MBC), Staphylococcus aureus
  MBC: 50 µM
[11]
  MBC, Pseudomonas aeruginosa PAO1: 2713 µg/mL
  MIC, Pseudomonas aeruginosa PAO1: 1356 µg/mL
Streptococcus pyogenes [12]
  MIC on bacteria, S. pyogenes: 12.5 µg/mL

## Penicillin [reference compound]
Streptococcus pyogenes [8]
  MBC, Streptococcus pyogenes: 0.25 µg/mL
  MBC/MIC ratio, S. pyogenes: 3
Enterococcus faecalis [9]
  MBC, Enterococcus faecalis: 20 µg/mL
  MBC/MIC ratio, E. faecalis: 8
Streptococcus mutans
  MBC for S. mutans: 2 µg/mL
  MIC for S. mutans: 0.03 µg/mL
Streptococcus mutans; [13]
  MBC/MIC ratio, Streptococcus mutans: 66
